The values that follow come from paper PMC11672547, “Combination of Coevolutionary Information and Supervised Learning Enables Generation of Cyclic Peptide Inhibitors with Enhanced Potency from a Small Data Set” (ACS Central Science, 2024).

Experiment [1] has as its target T1, human urokinase-type plasminogen activator (huPA) (Homo sapiens, UniProt P00749).
T1 construct: (UPA-LMW, Molecular Innovations, Novi, MI, USA) 1.5 nM; purchased Molecular Innovations UPA-LMW
Description: huPA inhibition, fluorogenic enzyme activity assay (Z-Gly-Gly-Arg-AMC), Ki by Cheng-Prusoff. It is filed as biochemical. Particulars: 25 °C, pH 7.4, substrate 50 μM, mean ± S.E. of at least three measurements, read-out: Ki. The procedure:
bicyclic peptides. The activity assay was performed by incubating […] huPA with 50 μM fluorogenic substrate Z-Gly-Gly-Arg-AMC (50 μM; Bachem, Bubendorf, Switzerland) and […]
NaCl, 10 mM MgCl2, 1mM CaCl2, 0.1% w/v BSA, 0.01% v/v Triton-X100 and 5% v/v DMSO.
The measurements were performed on a Tecan microplate reader (Tecan infinite 200 pro, Tecan Trading AG, Switzerland) using black microfluor 96-well plate Nunc MicroWell, (Thermo Fisher Scientific, Dreieich, Germany) The enzymatic reactions were performed at 25 °C for 30 min, under shacking with an excitation wavelength of 355 nm and an emission recording at 460 nm. The initial velocities were monitored as changes in fluorescence intensity. The sigmoidal curves were fitted to the data using the following non-linear regression equation for the inhibitory dose-response curves with variable slope (2): […]
where x is the peptide concentration, y is the residual percentage of protease activity and p is the hill slope. Half maximum inhibitory concentration (IC50) values were derived from the fitted curves from GraphPad Prism 8 8.0.0. software (GraphPad software, Inc., San Diego, California). The final Ki was subsequently determined using the Cheng-Prusoff equation (3): […]
where Km (115 μM) is the Michaelis constant for the hydrolysis of Z-Gly-Gly-Arg-AMC catalysed by huPA which has been determined by standard Michaelis-Menten equation.
Values were determined using either OriginPro 8G software (OriginLab Corporation, Northamppton, MA, USA) or GraphPad Prism 8.0.0. software (GraphPad software, Inc., San […]
Recombinant production of the catalytic domain of human urokinase-type […]
The low molecular weight (LMW) human urokinase-type plasminogen activator (huPA) comprising the truncated 23 amino acid peptide fragment of chain A (Lys136-Lys158 in […]

For experiment [2], the target named is T1, human urokinase-type plasminogen activator (huPA). Particulars: UK140 family of 31 phage-encoded bicyclic peptides; cited from earlier work.

Structures are written as SMILES. Like-named read-outs stand apart in the source and are kept apart here. Numbered stars: 1 amine (or outer) side, 2 acyl side, 3 side chain; on linkers, the order of the positions; unused ones are H or OH. Bridge positions count the residues as written; N and C are the ends. Peptide text beside a SMILES is read from it. TBMB = c1c(C[*:1])cc(C[*:3])cc1C[*:2]

Broadly, the Ki is the equilibrium dissociation constant of an inhibitor or competing ligand from its target. With `CC(C)[C@@H]1NC(=O)CNC(=O)[C@@H]2CSCc3cc(cc(c3)CSC[C@@H](C(=O)NCC(N)=O)NC(=O)[C@H](CO)NC(=O)[C@H](CO)NC(=O)[C@@H]3CCCN3C(=O)[C@H](CC(=O)O)NC1=O)CSC[C@H](NC(=O)[C@H](C)N)C(=O)N[C@@H](CC(N)=O)C(=O)N[C@@H](CO)C(=O)N[C@@H](CCCCN)C(=O)N[C@@H](Cc1ccccc1)C(=O)N[C@@H](CO)C(=O)NCC(=O)N2` [UK140, reference compound] (H-ACNSKFSGCGVDPSSCG-NH2; linker 2-9-16 via TBMB), the Ki in experiment [1] is 0.202 µM; in experiment [2], 0.2 µM.
